Counter-ions that a name gives are not always drawn.
Experiments:
Assay type in all cases: physicochemical
[1] = Salt screening assays of the acid (IIa): stability of the salts
Text: The following describes the salt screening assays in more detail:
Many inorganic cations were investigated to determine their ability to form a stable crystalline salt of the acid (IIa), including potassium, sodium, calcium, aluminium, magnesium, lithium, and zinc.
Several organic amines were investigated, including N-methylglucamine, diethanolamine, ethylenediamine, choline, lysine, and arginine.
In addition to the foregoing, it was investigated to form a mixed salt of the acid of Formula (IIa) with polyvalent inorganic cations and organic acids.
In general, the salt screening assay included the variability of the following different test parameters:
i) Type of cation-compound utilized (e.g., as carbonates, hydroxides, methylates, ethylates).
ii) Type of solvent utilized.
iii) Specific addition or exclusion of water (to assist the formation of hydrates or anhydrates).
iv) Type of crystallization utilized (cooling crystallization, antisolvent crystallization, or evaporation crystallization, and combinations thereof).
v) Type of screening (manual screening as well as high throughput screening).

[2] = Dynamic vapor sorption / hygroscopicity studies (automated water sorption analyzer); conditions: 25° C.; for relative humidity up to which the form is stable: sorption cycle
Method: The transformation of the monohydrate to the dihydrate form and vice versa occurs quickly and is well defined at 25° C. and at 40° C. This was shown by dynamic vapor sorption investigations. For example, during pre-drying of the monohydrate at 25° C. and 0% relative humidity, 4.0% water is released from the monohydrate. […] Between 20% and 40% relative humidity, one mole of water is absorbed, resulting in the formation of the monohydrate. The monohydrate is stable up to approximately 50% relative humidity and then is transformed into the dihydrate by absorption of a second mole of water between 50% and 60% relative humidity. The dihydrate is the stable form up to 98% relative humidity at 25° C. During the desorption cycle between 40% and 50% relative humidity, the transformation into the monohydrate takes place. The formed monohydrate is existent up to 10% relative humidity. Between 0% and 10% relative humidity the dehydration of the monohydrate to the dehydrated form II occurs. No significant differences between the two cycles were observed.
The hygroscopicity with respect to the transformation of the monohydrate and dihydrate was re-investigated between 45% and 55% relative humidity using smaller steps for the relative humidity. […] At 40° C. the reversible transformation between the monohydrate and the dihydrate is between 57% and 59% relative humidity, approximately 10% higher than at 25° C.
Also, the transformation of the anhydrate form of the potassium salt (Ia) to the hydrate form was shown by dynamic vapor sorption investigations at 25° C. Up to 40% relative humidity the anhydrate was stable. Between 40% and 60% relative humidity approximately two moles of water are absorbed, resulting in the formation of the dihydrate.
Data collection for the hygroscopicity studies was carried out in an automated water sorption analyzer. Approximately 20 mg of the investigated solid state form of the crystalline potassium salt (Ia) was exposed to a continuous flow of nitrogen with predetermined and constant relative humidity. The rate of sweep gas was set at 200 cm^3/min. For a basic assay, two full cycles (sorption/desorption) were measured at 25° C. The measurement was started at 0% relative humidity in order to remove surface water. Once the constant mass was achieved, the next humidity was automatically set. The water sorption/desorption was investigated in steps of 10% between 0% and 90% relative humidity under the criteria for initiation of the first step as set forth herein. Additionally, the sorption at about 98% relative humidity was investigated. Data was acquired using the DVSWin software. […]

[3] = Chemical stability of solid state forms under stress at 40° C./75% rH over 4 weeks (HPLC purity); conditions: for HPLC-purity: 40° C./75% RH; for chemical stability under stress (in words): 40° C./75% rH
Method: The chemical stability of the anhydrate and the monohydrate of the potassium salt of Formula (Ia) of the invention as well as the dehydrated form I of the potassium salt (Ia) of the invention were assessed by comparing the stability under stress at 40° C./75% rH over a period of 4 weeks.

Compound | relative humidity up to which the form is stable [2] | HPLC-purity ([3]; 0 weeks (start)) | HPLC-purity ([3]; 2 weeks) | HPLC-purity ([3]; 4 weeks) | chemical stability under stress (in words) ([3]; 4 weeks) | water released during pre-drying ([2]; 0% relative humidity, gives dehydrated form II) | stability compared with other salts and the free acid (in words) [1]
O=C(O)COC[C@H](O)[C@H](O)/C=C/C=C/C#C/C=C/[C@H](O)COc1ccc(F)cc1 [(Ia), potassium 2-((2S,3R,4E,6E,10E,12S)-13-(4-fluorophenoxy)-2,3,12-trihydroxytrideca-4,6,10-trien-6-ynyloxy)acetate] | – | – | – | – | – | – | substantially more stable than every other salt prepared
O=C(O)COC[C@H](O)[C@H](O)/C=C/C=C/C#C/C=C/[C@H](O)COc1ccc(F)cc1 [K-salt, dehydrated form I, potassium 2-((2S,3R,4E,6E,10E,12S)-13-(4-fluorophenoxy)-2,3,12-trihydroxytrideca-4,6,10-trien-6-ynyloxy)acetate] | – | 97.8% | 97.1% | 95.3% | – | – | –
O=C(O)COC[C@H](O)[C@H](O)/C=C/C=C/C#C/C=C/[C@H](O)COc1ccc(F)cc1 [dihydrate, potassium 2-((2S,3R,4E,6E,10E,12S)-13-(4-fluorophenoxy)-2,3,12-trihydroxytrideca-4,6,10-trien-6-ynyloxy)acetate] | up to 98 % relative humidity | – | – | – | – | – | –

Second part, led by results:

relative humidity up to which the form is stable [2] | HPLC-purity ([3]; 0 weeks (start)) | HPLC-purity ([3]; 2 weeks) | HPLC-purity ([3]; 4 weeks) | chemical stability under stress (in words) ([3]; 4 weeks) | water released during pre-drying ([2]; 0% relative humidity, gives dehydrated form II) | Compound | stability compared with other salts and the free acid (in words) [1]
Up to 40 % relative humidity | 99.6% | 99.7% | 99.7% | no sign of degradation | – | O=C(O)COC[C@H](O)[C@H](O)/C=C/C=C/C#C/C=C/[C@H](O)COc1ccc(F)cc1 [K-salt, Anhydrate, potassium 2-((2S,3R,4E,6E,10E,12S)-13-(4-fluorophenoxy)-2,3,12-trihydroxytrideca-4,6,10-trien-6-ynyloxy)acetate] | –
approximately 50 % relative humidity | 99.7% | 99.6% | 99.7% | no sign of degradation | 4.0% | O=C(O)COC[C@H](O)[C@H](O)/C=C/C=C/C#C/C=C/[C@H](O)COc1ccc(F)cc1 [K-salt, Monohydrate, potassium 2-((2S,3R,4E,6E,10E,12S)-13-(4-fluorophenoxy)-2,3,12-trihydroxytrideca-4,6,10-trien-6-ynyloxy)acetate] | –

Source: US8049035B2, “Crystalline potassium salt of lipoxin A4 analogs” (Bayer Pharma AG, priority 2006, dated 2011)
